# Columns and labels:
# [1] = test system: weeds; experiment: Pre-emergence test (Example A), weeds; type: in vivo; conditions: soil sprayed 24 hours after sowing, rated after three weeks
# Text: (§1) Solvent: 5 parts by weight of acetone
# (§2) Emulsifier: 1 part by weight of alkylaryl polyglycol ether
# Seeds of the test plants are sown in normal soil.
# (§3) After three weeks, the degree of damage to the plants is rated in % damage in comparison to the development of the untreated control.
# [2] = LogP determination by HPLC (EEC directive 79/831 Annex V.A8, reversed-phase C18); type: physicochemical; conditions: reversed-phase C18 HPLC column, mobile phase range not labelled
# Protocol: The LogP values given in Table 1 were determined in accordance with EEC directive 79/831 Annex V.A8 by HPLC (High Performance Liquid Chromatography) using a reversed-phase column (C 18). Temperature: 43° C.
# (a) Mobile phases for the determination in the acidic range: 0.1% aqueous phosphoric acid, acetonitrile; linear gradient from 10% acetonitrile to 90% acetonitrile—the corresponding data in Table 1 are labelled^a).
# (b) Mobile phases for the determination in the neutral range, 0.01 molar aqueous phosphate buffer solution, acetonitrile; linear gradient from 10% acetonitrile to 90% acetonitrile—the corresponding data in Table 1 are labelled b
# Calibration was carried out using unbranched alkan-2-ones (with from 3 to 16 carbon atoms) whose logP values are known (determination of the logP values by the retention times using linear interpolation between two successive alkanones).
# [3] = test system: weeds; experiment: Post-emergence test (Example B), weeds; type: in vivo; conditions: test plants of 5-15 cm sprayed, rated after three weeks
# Text: as §1, §2, §3
chromatographic logP [2],melting point [°C],SMILES,activity against weeds (degree of damage) [1],activity against weeds (degree of damage) [3]
,,CC1C=Cc2c(c(C#N)cc(F)c2-n2c(=O)cc(C(F)(F)F)n(N)c2=O)O1 (stereo not shown) [Example 1],very strong activity,
2.51,245,COc1cc(N2C(=O)c3ccccc3C2=O)c(F)cc1C#N [N-(2-fluoro-4-cyano-5-methoxy-phenyl)-phthalimide],,
2.92,170,"C#CC(C)Oc1cc(N2C(=O)c3ccccc3C2=O)c(F)cc1C#N (stereo not shown) [Example (II-2), N-[2-fluoro-4-cyano-5-(but-1-in-3-yl)-oxyphenyl]-phthalimide]",,
2.04,247,N#Cc1cc(F)c(N2C(=O)c3ccccc3C2=O)cc1O [N-(2-fluoro-4-cyano-5-hydroxy-phenyl)-phthalimide],,

SMILES,chromatographic logP [2],melting point [°C],activity against weeds (degree of damage) [1],activity against weeds (degree of damage) [3]
CC1C=Cc2c(c(C#N)cc(F)c2-n2nc(C(F)(F)F)n(C)c2=S)O1 (stereo not shown) [Example 2],3.37,144,,very strong activity

# From patent US6573219B1, “Substituted heterocyclyl-2H-chromenes” (Bayer Aktiengesellschaft, priority 1999, dated 2003)
